Reference: US20250328351A1, “CARBONIC ANHYDRASE INHIBITORS AND ANTIBIOTICS AGAINST MULTIDRUG RESISTANT BACTERIA” (Purdue Research Foundation, priority 2018, published 2025)
Converted amounts (≈) assume the structure as drawn. Where two headings read alike, the source gives them in different places. Values belong to the molecule of their own block, whether it stands above or below them.

Columns and labels:
Format in all cases: cell-based
[1] = tested on: Enterococcus faecalis S613 HM-334; test: MIC, broth microdilution (CLSI); conditions: Enterococcus faecalis, read-out: MIC
Experimental: The minimum inhibitory concentrations (MICs) of the compounds and control drugs were determined using the broth microdilution method, according to guidelines outlined by the Clinical and Laboratory Standards Institute (CLSI). Enterococci strains were grown aerobically overnight on tryptone soya agar plates at 37° C., afterwards a bacterial solution equivalent to 0.5 McFarland standard was prepared and diluted in tryptone soy broth (TSB) to achieve a bacterial concentration of about 5×10^5 CFU/mL and seeded in 96-well well plates. Compounds and control drugs were added in the first row of the 96-well plates and serially diluted along the plates. Plates were then incubated aerobically at 37° C. for 18-20 hours. MICs reported in Table 1 are the minimum concentration of the compounds/control drugs that could inhibit completely the visual growth of the bacteria.
The minimum inhibitory concentrations (MICs) of CAIs were tested against clinical isolates of vancomycin sensitive and vancomycin resistant Enterococci strains as per the guidelines provided by the Clinical and Laboratory Standards Institute (CLSI). The selected strains of Enterococci were streaked on Tryptic Soy Agar (TSA) plates and let grow for 24 hours at 37° C. Afterwards, a bacterial solution equivalent to 0.5 McFarland standard was prepared and diluted in tryptone soy broth (TSB) or brain heart infusion broth (BHIB) to achieve a bacterial concentration of about 5×10^5 CFU/mL and seeded in 96-well well plates. Compounds and control drugs were added in the first row of the 96-well plates and serially diluted along the plates. Plates were then incubated aerobically at 37° C. for 18-20 hours. MICs reported in Table 5 are the minimum concentration of the compounds/control drugs that could inhibit completely the visual growth of the bacteria.
The minimum inhibitory concentrations (MICs) of CAIs were tested against vancomycin resistant Enterococcus faecalis—S613 HM 334 strain as per the guidelines provided by the Clinical and Laboratory Standards Institute (CLSI). The selected strain was streaked on Tryptic Soy Agar (TSA) plate and let grow for 24 hours at 37° C. […] Compounds and control drugs were added in the first row of the 96-well plates and serially diluted along the plates. Plates were then incubated aerobically at 37° C. for 18-20 hours. MICs reported in table (6) are the minimum concentration of the compounds/control drugs that could inhibit completely the visual growth of the bacteria.

[2] = tested on: Bacteroides fragilis CL07T00C01 HM-709; test: MIC against human normal gut microbiota; conditions: Table 3, BHIS broth, anaerobic, 48 hours, read-out: MIC
Experimental: (§1) Three different bacterial strains were used in this experiment; Bifidobacterium (anaerobic Gram positive bacteria), Bacteroides (anaerobic Gram negative bacteria) and Lactobacillus (microaerophilic Gram positive bacteria). Bifidobacterium and Bacteroides were first grown for 48 hours at 37° C., anaerobically using brain heart infusion supplemented (BHIS) agar (Brain heart infusion agar supplemented with hemin, vitamin K and L-cysteine). Lactobacillus was cultivated on MRS agar and incubated in presence of 5% CO2 for 48 hours at 37° C. Each bacterium was suspended in phosphate buffered saline (PBS) to produce a suspension with optical density that matches 0.5 McFarland standard and diluted in brain heart infusion supplemented broth (for Bifidobacterium and Bacteroides) or in MRS broth (for Lactobacillus) to achieve bacterial concentration of approximately 5×10^5 CFU/ml. Bacteria were then seeded in 96-well plates containing serial dilutions of the compounds and incubated as mentioned previously for 48 hours.

[3] = tested on: Bacteroides dorei CL02T12C06 HM-719; test: MIC against human normal gut microbiota; conditions: Phocaeicola dorei; Table 3; BHIS broth, anaerobic, 48 hours; read-out: MIC
Experimental: as §1

[4] = tested on: Bifidobacterium breve JCP7499 HM 1120; test: MIC against human normal gut microbiota; conditions: JCP7499HM1120, Table 3, BHIS broth, anaerobic, 48 hours, read-out: MIC
Experimental: as §1

[5] = S613HM334, Table 6, TSB in presence of 4% human serum albumin

MIC ([1]; S613HM334, Table 7, TSB): 1 µg/mL (≈ 3.81 µM)
Compound: NS(=O)(=O)c1nnc(NC(=O)C2CCC2)s1 [CAI0018, N-(5-Sulfamoyl-1,3,4-thiadiazol-2-yl)cyclobutanecarboxamide]

MIC ([1]; S613HM334, Table 7, TSB): 0.007 µg/mL (≈ 0.0282 µM)
Compound: NS(=O)(=O)c1nnc(NC(=O)C2CC2)s1 [CAI0020, N-(5-Sulfamoyl-1,3,4-thiadiazol-2-yl)cyclopropanecarboxamide]

MIC ([1]; S613HM334, Table 7, TSB): 0.5 µg/mL (≈ 1.81 µM)
Compound: NS(=O)(=O)c1nnc(NC(=O)C2CCCC2)s1 [CAI0023, N-(5-Sulfamoyl-1,3,4-thiadiazol-2-yl)cyclopentanecarboxamide]

MIC ([1]; S613HM334, Table 7, TSB): 0.25 µg/mL (≈ 0.946 µM)
Compound: CC(C)CC(=O)Nc1nnc(S(N)(=O)=O)s1 [CAI0026, 3-Methyl-N-(5-sulfamoyl-1,3,4-thiadiazol-2-yl)butanamide]

MIC ([1]; S613HM334, Table 7, TSB): 0.007 µg/mL (≈ 0.0239 µM)
Compound: CCCCCCC(=O)Nc1nnc(S(N)(=O)=O)s1 [CAI0027, N-(5-Sulfamoyl-1,3,4-thiadiazol-2-yl)heptanamide]

MIC ([1]; S613HM334, Table 7, TSB): 0.03 µg/mL (≈ 0.108 µM)
Compound: CC(C)(C)CC(=O)Nc1nnc(S(N)(=O)=O)s1 [CAI0028, 3,3-Dimethyl-N-(5-sulfamoyl-1,3,4-thiadiazol-2-yl)butanamide]

MIC ([1]; S613HM334, Table 1, TSB): 1 µg/mL (≈ 2.96 µM)
MIC ([1]; S613HM334, Table 5, BHIB): 1 µg/mL (≈ 2.96 µM)
MIC ([1]; S613HM334, Table 5, TSB): 1 µg/mL (≈ 2.96 µM)
MIC ([1]; S613HM334, Table 7, TSB): 1 µg/mL (≈ 2.96 µM)
Compound: CC(=O)NC[C@H]1CN(c2ccc(N3CCOCC3)c(F)c2)C(=O)O1 [Linezolid]
MIC [2]: 2 µg/mL (≈ 5.93 µM)
MIC [3]: 1 µg/mL (≈ 2.96 µM)
MIC [4]: ≤ 0.5 µg/mL

MIC ([1]; S613HM334, Table 5, BHIB): > 128 µg/mL
MIC ([1]; S613HM334, Table 5, TSB): 1 µg/mL (≈ 4.23 µM)
MIC [1, 5]: > 256 µg/mL
Compound: CC(=O)/N=c1/sc(S(N)(=O)=O)nn1C [Methazolamide]

Second part, the molecule before the results:

Compound: CCN[C@H]1CN(CCCOC)S(=O)(=O)c2sc(S(N)(=O)=O)cc21 [Brinzolamide]
MIC ([1]; S613HM334, Table 5, BHIB): > 128 µg/mL
MIC ([1]; S613HM334, Table 5, TSB): 2 µg/mL (≈ 5.21 µM)
MIC [1, 5]: > 256 µg/mL

Compound: CCC(=O)Nc1nnc(S(N)(=O)=O)s1 [CAI0009, N-(5-Sulfamoyl-1,3,4-thiadiazol-2-yl)propionamide]
MIC [2]: > 64 µg/mL
MIC [3]: > 64 µg/mL
MIC [4]: > 64 µg/mL
MIC ([1]; S613HM334, Table 1, TSB): 2 µg/mL (≈ 8.46 µM)
MIC ([1]; S613HM334, Table 7, TSB): 2 µg/mL (≈ 8.46 µM)

Compound: NS(=O)(=O)c1nnc(NC(=O)c2ccccc2)s1 [CAI0012, N-(5-Sulfamoyl-1,3,4-thiadiazol-2-yl)benzamide]
MIC [2]: > 64 µg/mL
MIC [3]: > 64 µg/mL
MIC [4]: > 64 µg/mL
MIC ([1]; S613HM334, Table 1, TSB): 4 µg/mL (≈ 14.1 µM)
MIC ([1]; S613HM334, Table 7, TSB): 4 µg/mL (≈ 14.1 µM)

Compound: NS(=O)(=O)c1nnc(NC(=O)CC2CCCC2)s1 [CAI0021, 2-Cyclopentyl-N-(5-sulfamoyl-1,3,4-thiadiazol-2-yl)acetamide]
MIC ([1]; S613HM334, Table 7, TSB): 0.03 µg/mL (≈ 0.103 µM)

Compound: NS(=O)(=O)c1nnc(NC(=O)C2CCCCC2)s1 [CAI0022, N-(5-Sulfamoyl-1,3,4-thiadiazol-2-yl)cyclohexanecarboxamide]
MIC ([1]; S613HM334, Table 7, TSB): 0.25 µg/mL (≈ 0.861 µM)

Compound: CC(=O)Nc1nnc(S(C)(=O)=O)s1 [CAI0025, N-(5-(Methylsulfonyl)-1,3,4-thiadiazol-2-yl)acetamide]
MIC ([1]; S613HM334, Table 7, TSB): > 128 µg/mL

Compound: NS(=O)(=O)c1nnc(NC(=O)CC2CCCCC2)s1 [CAI0029, 2-Cyclohexyl-N-(5-sulfamoyl-1,3,4-thiadiazol-2-yl)acetamide]
MIC ([1]; S613HM334, Table 7, TSB): 0.015 µg/mL (≈ 0.0493 µM)

Compound: CCOc1ccc2nc(S(N)(=O)=O)sc2c1 [Ethoxzolamide]
MIC ([1]; S613HM334, Table 5, BHIB): > 128 µg/mL
MIC ([1]; S613HM334, Table 5, TSB): 1 µg/mL (≈ 3.87 µM)
MIC [1, 5]: > 256 µg/mL
